System: calpains 1 and 2 in monkey retinal lysate
Experiment: In vitro inhibitory assay of calpains from retinal lysate (CaCl2, immunoblotting)
Format: biochemical
Conditions: non-cultured monkey retina lysate, 10 mM CaCl2, 2 hr, 37°C; inhibitor at 1, 10 and 100 µM
Experimental: Each retinal explant was sonicated in RIPA Lysis and Extraction Buffer (Thermo Fisher Scientific), with protease inhibitors cocktail (Complete Mini-EDTA-free; MilliporeSigma). Protein concentrations in lysates were measured by BCA assay (Pierce BCA Protein Assay Kit, Thermo Fisher Scientific) using bovine serum albumin as a standard. For immunoblotting, 5 μg of each sample was loaded and run on 4% to 12% gradient or 10% SDS-PAGE gels (NuPAGE Bis-Tris Protein Gels, Thermo Fisher Scientific) with 2-(N-morpholino)ethanesulfonic acid buffer or 3-(N-morpholino) propanesulfonic acid buffer (Thermo Fisher Scientific). Proteins were then electrotransferred to a polyvinylidene fluoride membrane (MilliporeSigma) at 100 V for 60 min or 1.5 hr. Membranes were then blocked with 5% skim milk in Tris-buffer saline (Bio-Rad Laboratories, Hercules, CA, USA) containing 0.05% Tween 20. Each membrane was probed with primary antibodies against α-spectrin (1:2000 dilution, Enzo Life Sciences, Farmingdale, NY, USA), SBDP150 (1:1000 dilution, Senju Pharmaceutical), calpain 1 (1:1000 dilution, Thermo Fisher Scientific), calpain 2 (1:500, GeneTex, Irvine, CA, USA), cathepsin K (1:500 dilution, Abcam), and β-actin (1:1000 dilution, Merck). For calpain 1, immunoreactivity was visualized using a secondary antibody conjugated to alkaline phosphatase and the AP Conjugate Substrate Kit (Bio-Rad Laboratories). For other proteins, immunoreactivities were visualized using secondary antibodies conjugated with rabbit (Santa Cruz Biotechnology) or mouse horseradish peroxidase enzyme (Cytiva, Wilmington, DE, USA) and ECL Plus detection reagents (Cytiva). Images of the membranes were captured with FluorChem FC2 imager (Cell Biosciences, Santa Clara, CA, USA). The conversion of pro-cathepsin K (38 kDa) to its mature form (27 kDa) was used as an indicator of cathepsin K activation.
To confirm the isozyme specificities of calpain inhibitors in vitro, non-cultured monkey retinas were sonicated in a buffer containing 20 mM Tris (pH 7.5), 5 mM EGTA, 5 mM EDTA, 2 mM DTE. […]

COCCOCCOC(=O)N[C@@H](CC(C)C)C(=O)N[C@@H](Cc1ccccc1)C(=O)C(=O)NC1CC1 [SNJ-1945]
Effect on calcium-induced activation (autolysis) of calpains 1 and 2 and SBDP150 in retinal lysate: inhibited the activation of both calpain 1 and calpain 2 in a dose-dependent manner
